Assay results published in patent US10485235B2, “Aryloxypyrimidinyl ethers as herbicides” (FMC Corporation, priority 2015, dated 2019).

Tests used:
Format in all cases: in vivo
[1] = test system: barnyardgrass (Echinochloa crus-galli); assay: Test A preemergence, barnyardgrass; details: Preemergence, 0 to 100 scale (0 no effect, 100 complete control)
In short: (§1)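 Test chemicals in a solvent/surfactant mixture were applied as a preemergence directed soil spray on seeded loam–sand, or postemergence to plants 2–10 cm tall at the one- to two-leaf stage. After roughly 10 days in a greenhouse, injury was visually rated versus untreated controls on a 0 (no effect) to 100 (complete control) scale.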

kochia (Kochia scoparia) [2] = assay: Test A preemergence, kochia; details: Preemergence, 0 to 100 scale (0 no effect, 100 complete control)
In short: as §1

[3] = test system: ragweed (common ragweed, Ambrosia elatior); assay: Test A preemergence, ragweed; details: Preemergence, 0 to 100 scale (0 no effect, 100 complete control)
In short: as §1

[4] = test system: ryegrass, Italian (Italian ryegrass, Lolium multiflorum); assay: Test A preemergence, Italian ryegrass; details: Preemergence, 0 to 100 scale (0 no effect, 100 complete control)
In short: as §1

[5] = test system: foxtail, giant (giant foxtail, Setaria faberii); assay: Test A preemergence, giant foxtail; details: Preemergence, 0 to 100 scale (0 no effect, 100 complete control)
In short: as §1

[6] = test system: pigweed (Amaranthus retroflexus); assay: Test A preemergence, pigweed; details: Preemergence, 0 to 100 scale (0 no effect, 100 complete control)
In short: as §1

[7] = test system: barnyardgrass (Echinochloa crus-galli); assay: Test A postemergence, barnyardgrass; details: postemergence, 0 to 100 scale, 0 is no effect, 100 is complete control, approximately 10 days
In short: as §1

kochia (Kochia scoparia) [8] = assay: Test A postemergence, kochia; details: postemergence, 0 to 100 scale, 0 is no effect, 100 is complete control, approximately 10 days
In short: as §1

[9] = test system: ragweed (common ragweed, Ambrosia elatior); assay: Test A postemergence, ragweed; details: postemergence, 0 to 100 scale, 0 is no effect, 100 is complete control, approximately 10 days
In short: as §1

[10] = test system: ryegrass, Italian (Italian ryegrass, Lolium multiflorum); assay: Test A postemergence, Italian ryegrass; details: postemergence, 0 to 100 scale, 0 is no effect, 100 is complete control, approximately 10 days
In short: as §1

[11] = test system: foxtail, giant (giant foxtail, Setaria faberii); assay: Test A postemergence, giant foxtail; details: postemergence, 0 to 100 scale, 0 is no effect, 100 is complete control, approximately 10 days
In short: as §1

[12] = test system: pigweed (Amaranthus retroflexus); assay: Test A postemergence, pigweed; details: postemergence, 0 to 100 scale, 0 is no effect, 100 is complete control, approximately 10 days
In short: as §1

[13] = test system: wheat (Triticum aestivum); assay: Test A postemergence, wheat; details: postemergence, 0 to 100 scale, 0 is no effect, 100 is complete control, approximately 10 days
In short: as §1

corn (Zea mays) = assay: Test A postemergence, corn; details: postemergence, 0 to 100 scale, 0 is no effect, 100 is complete control, approximately 10 days
In short: as §1

[14] = test system: blackgrass (Alopecurus myosuroides); assay: Test A postemergence, blackgrass; details: postemergence, 0 to 100 scale, 0 is no effect, 100 is complete control, approximately 10 days
In short: as §1

[15] = test system: galium (catchweed bedstraw, Galium aparine); assay: Test A postemergence, galium; details: postemergence, 0 to 100 scale, 0 is no effect, 100 is complete control, approximately 10 days
In short: as §1

rice (Oryza sativa) = assay: Test B flooded paddy test, rice; details: 250 g ai/ha, Flood; visual rating after 13 to 15 days; scale 0 to 100, 0 is no effect, 100 is complete control
In short: (§2)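 Plants grown to 2-leaf stage, pots flooded to 3 cm above soil and compound applied directly to paddy water, depth maintained throughout. After 13-15 days in greenhouse, visual rating against untreated controls on 0-100 scale (0 no effect, 100 complete control).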

[16] = test system: sedge, umbrella (small-flower umbrella sedge, Cyperus difformis); assay: Test B flooded paddy test, umbrella sedge; details: 250 g ai/ha, Flood; visual rating after 13 to 15 days; scale 0 to 100, 0 is no effect, 100 is complete control
In short: as §2

[17] = test system: ducksalad (Heteranthera limosa); assay: Test B flooded paddy test, ducksalad; details: 250 g ai/ha, Flood; visual rating after 13 to 15 days; scale 0 to 100, 0 is no effect, 100 is complete control
In short: as §2

[18] = test system: barnyardgrass (Echinochloa crus-galli); assay: Test B flooded paddy test, barnyardgrass; details: 250 g ai/ha, Flood; visual rating after 13 to 15 days; scale 0 to 100, 0 is no effect, 100 is complete control
In short: as §2

Structure (SMILES)	Plant response rating, Barnyardgrass ([1]; 31 g ai/ha)	Plant response rating, Barnyardgrass ([1]; 125 g ai/ha)	Plant response rating, Kochia (kochia (Kochia scoparia) [2]; 31 g ai/ha)	Plant response rating, Kochia (kochia (Kochia scoparia) [2]; 125 g ai/ha)	Plant response rating, Ragweed ([3]; 31 g ai/ha)	Plant response rating, Ragweed ([3]; 125 g ai/ha)	Plant response rating, Ryegrass, Italian ([4]; 31 g ai/ha)	Plant response rating, Ryegrass, Italian ([4]; 125 g ai/ha)	Plant response rating, Foxtail, Giant ([5]; 31 g ai/ha)	Plant response rating, Foxtail, Giant ([5]; 125 g ai/ha)	Plant response rating, Pigweed ([6]; 31 g ai/ha)	Plant response rating, Pigweed ([6]; 125 g ai/ha)	Plant response rating, Barnyardgrass ([7]; 31 g ai/ha)	Plant response rating, Barnyardgrass ([7]; 125 g ai/ha)	Plant response rating, Kochia (kochia (Kochia scoparia) [8]; 31 g ai/ha)	Plant response rating, Kochia (kochia (Kochia scoparia) [8]; 125 g ai/ha)	Plant response rating, Ragweed ([9]; 31 g ai/ha)	Plant response rating, Ragweed ([9]; 125 g ai/ha)	Plant response rating, Ryegrass, Italian ([10]; 31 g ai/ha)	Plant response rating, Ryegrass, Italian ([10]; 125 g ai/ha)	further results
Cc1cccc(Oc2ncc(Cl)cn2)c1OCCCC(F)(F)F [Compound 55]	10	70	0	60	0	0	0	10	10	80	0	50	10	20	10	20	0	0	0	20	Plant response rating, Foxtail, Giant ([11]; 31 g ai/ha): 20; Plant response rating, Foxtail, Giant ([11]; 125 g ai/ha): 60; Plant response rating, Pigweed ([12]; 31 g ai/ha): 10; Plant response rating, Pigweed ([12]; 125 g ai/ha): 30; Plant response rating, Wheat ([13]; 31 g ai/ha): 0; Plant response rating, Wheat ([13]; 125 g ai/ha): 0; Plant response rating, Corn (corn (Zea mays); 31 g ai/ha): 0; Plant response rating, Corn (corn (Zea mays); 125 g ai/ha): 20; Plant response rating, Blackgrass ([14]; 31 g ai/ha): 0; Plant response rating, Blackgrass ([14]; 125 g ai/ha): 20; Plant response rating, Galium ([15]; 31 g ai/ha): 0; Plant response rating, Galium ([15]; 125 g ai/ha): 20; Plant response rating, Rice (rice (Oryza sativa)): 45; Plant response rating, Sedge, Umbrella [16]: 95; Plant response rating, Ducksalad [17]: 100; Plant response rating, Barnyardgrass [18]: 40
O=C(CCC(F)(F)F)COc1c(Br)cccc1Oc1ncc(Cl)cn1 [Compound 56]	0	90	0	50	0	0	0	0	0	90	0	80	0	20	0	60	0	0	0	10	Plant response rating, Foxtail, Giant ([11]; 31 g ai/ha): 0; Plant response rating, Foxtail, Giant ([11]; 125 g ai/ha): 30; Plant response rating, Pigweed ([12]; 31 g ai/ha): 40; Plant response rating, Pigweed ([12]; 125 g ai/ha): 100; Plant response rating, Wheat ([13]; 31 g ai/ha): 0; Plant response rating, Wheat ([13]; 125 g ai/ha): 20; Plant response rating, Corn (corn (Zea mays); 31 g ai/ha): 10; Plant response rating, Corn (corn (Zea mays); 125 g ai/ha): 30; Plant response rating, Blackgrass ([14]; 31 g ai/ha): 0; Plant response rating, Blackgrass ([14]; 125 g ai/ha): 20; Plant response rating, Galium ([15]; 31 g ai/ha): 10; Plant response rating, Galium ([15]; 125 g ai/ha): 40; Plant response rating, Rice (rice (Oryza sativa)): 30; Plant response rating, Sedge, Umbrella [16]: 75; Plant response rating, Ducksalad [17]: 85; Plant response rating, Barnyardgrass [18]: 0
